Test results: patent publication US20180002366A1, “4'-SUBSTITUTED NUCLEOSIDE REVERSE TRANSCRIPTASE INHIBITORS” (MERCK SHARP & DOHME CORP., priority 2014, published 2018)

Columns and labels:
[1] = test system: HIV-1 (H9IIIB virus) replication in MT4-GFP cells; assay: Antiviral Persistence assay; settings: for Fold shift IC50 72 h/24 h: ratio of IC50 72 h to IC50 24 h
Procedure: HIV-1 replication was monitored using MT4-gag-GFP clone D3 (hereafter designate MT4-GFP), which are MT-4 cells modified to harbor a GFP reporter gene, the expression of which is dependent on the HIV-1 expressed proteins tat and rev. Productive infection of an MT4-GFP cell with HIV-1 results in GFP expression approximately 24 h post-infection. MT4-GFP cells were maintained at 37° C./5% CO2/90% relative humidity in RPMI 1640 supplemented with 10% fetal bovine serum, 100 U/mL penicillin/streptomycin, and 400 μg/mL G418 to maintain the reporter gene. For 72 hour time point persistence assay (72 h plate) and 24 hour time point control assay (24 h plate), MT4-GFP cells were washed and re-suspended in RPMI 1640 containing 10% normal human serum at either 1.6×10^5 or 2.4×10^5 cells/mL (10% NHS). Compound plates were prepared by dispensing compounds dissolved in DMSO into wells of 384 well cell culture plates ([…]) using an ECHO acoustic dispenser. Each compound was tested in a 10 point serial 3-fold dilution (typical final concentrations: 4.2 μM-0.21 nM). Controls included no inhibitor (DMSO only) and a combination of three antiviral agents (efavirenz, indinavir, and an integrase strand transfer inhibitor at final concentrations of 4 μM each). Cells were added (50 μL/well) to compound plates and were incubated at 37° C./5% CO2/90% relative humidity for 24 hours. The cells were washed with 5×40 uL of RPMI 1640 supplemented with 10% NHS and 100 U/mL penicillin/streptomycin. 72 h plate was return back to 37° C. incubator for additional 48 hour incubation. 40 uL of the cells from each well of the 24 h plate or the 72 h plate (after 48 hour incubation post wash) were transferred to a poly-D-lysine coated plate. The cells were then infected with H9IIIB virus at an approximate multiplicity of infection of 0.1 in the same incubation conditions.
Infected cells were quantified at ˜24 h post-infection, by counting the number of green cells in each well using an Acumen eX3 scanner. IC50s for the compounds in Table 4 were determined by non-linear 4-parameter curve fitting.
The antiviral persistence assay is meant to assess for the persistence of antiviral activity upon removal of the nucleoside. […] The publication AIDS Research and Therapy, 2009, 6:5, highlights the value of antiviral persistence.

human ADA type 1 = biological target: T1, human ADA type 1 (Homo sapiens, UniProt P00813); assay: Adenosine Deaminase (ADA) Half-Life; format: in vitro ADME; settings: Tris-HCl buffer pH 7.5, 40° C., procedures as for compound 2 to 2A
T1 sequence (P00813 1-363): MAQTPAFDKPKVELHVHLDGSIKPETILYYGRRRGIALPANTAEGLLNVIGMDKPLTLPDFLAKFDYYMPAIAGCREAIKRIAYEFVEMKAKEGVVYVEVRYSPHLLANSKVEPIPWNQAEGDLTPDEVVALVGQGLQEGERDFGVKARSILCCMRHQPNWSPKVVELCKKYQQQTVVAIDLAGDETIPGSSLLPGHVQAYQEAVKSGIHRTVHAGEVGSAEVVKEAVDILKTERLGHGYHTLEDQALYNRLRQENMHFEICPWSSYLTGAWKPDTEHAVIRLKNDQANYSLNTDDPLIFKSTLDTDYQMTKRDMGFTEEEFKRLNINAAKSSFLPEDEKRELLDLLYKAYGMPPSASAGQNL
Procedure: (§1) The data in Table 5 was generated by reacting a substrate compound with human ADA type 1 in the presence of Tris-HCl buffer (pH 7.5) at 40° C. and monitoring by LCMS for consumption of starting material. The time necessary for 50% conversion to the corresponding inosine product is noted as the T1/2 in Table 5. It is known that deamination by adenosine deaminase decreases the therapeutic potential of adenosine-like nucleoside inhibitors especially in vivo (see references below). […] It is possible that compounds that are more resistant to ADA will have better pharmacokinetic properties.
(§2) Tris-HCl buffer (pH 7.5, 5 mL) was injected into a 25-mL round-bottom flask. The mixture was heated to reflux for 30 minutes. Then the mixture was cooled to 30° C. and (2R,3S,5R)-5-(4-amino-5-fluoro-7H-pyrrolo[2,3-d]pyrimidin-7-yl)-2-ethynyl-2-(hydroxymethyl)tetrahydrofuran-3-ol (Example compound 2, 7 mg, 0.024 mmol) was added, followed by the addition of adenosine deaminase (3 mg, ˜33 units). The resulting mixture was stirred at 40° C. and stirred for 4 days. The reaction mixture was concentrated under vacuum and the residue was purified by preparative-HPLC with the following conditions: Column: X-Bridge C18, 19*150 mm, 5 um; mobile phase, water with 10 mmol ammonium bicarbonate and acetonitrile (6% acetonitrile up to 30% in 5 min, hold 95% for 2 min, down to 40% in 2 min); Detector, uv 254&220 nm. The product-containing fractions were collected and lyophilized to give the title compound 2A as a solid. ^1H-NMR: (400 MHz, d6-DMSO, ppm): δ 11.58 (brs, 1H), 7.86 (s, 1H), 7.22 (d, J=1.6 Hz, 1H), 6.44 (t, J=5.8 Hz, 1H), 5.47 (d, J=4.8 Hz, 1H), 5.26-5.22 (m, 1H), 4.39-4.35 (m, 1H), 3.55-3.45 (m, 2H), 3.42 (s, 1H), 2.41-2.24 (m, 2H). ^19F-NMR: (376 MHz, d6-DMSO, ppm): δ −165.50 (s, 1F). LC-MS: (ES, m/z): 294.15 [M+H]^+.
(§3) Using the described procedures, conversion of compounds 4, 8 and 9 to 4A, 8A and 9A, respectively, was not detected (NA=substrate insensitive to adenosine deaminase).

[2] = test system: HIV-1 (H9IIIB virus) replication in MT4-GFP cells; assay: Viking Assay: antiviral potency in a multiple round HIV-1 infection assay; format: cell-based; settings: Human immunodeficiency virus 1, 10% normal human serum, inhibition of reproductive ratio R0 between ~48 h and ~72 h post-infection, read-out: Viking, IC50 (10% NHS)
Procedure: Assessing Antiviral Potency in a Multiple Round HIV-1 Infection Assay.
Cells were then washed and re-suspended in either RPMI 1640 containing 10% or 50% normal human serum at 1.6×10^5 cells/mL (10% or 50% NHS conditions) or in 100% normal human serum at 2×10^5 cells/mL (100% NHS conditions).
The increase in the number of green cells over ˜24 h period gives the reproductive ratio, R0, which is typically 5-15 and has been shown experimentally to be in logarithmic phase (data not shown). Inhibition of R0 is calculated for each well, and IC50s determined by non-linear 4-parameter curve fitting.

[3] = biological target: T2, adenosine deaminase (ADA) type 1 (Homo sapiens, UniProt P00813); assay: Adenosine Deaminase (ADA) Half-Life; format: in vitro ADME; settings: human, human adenosine deaminase (ADA) type 1 in Tris-HCl buffer; time for 50% conversion to inosine product; Tris-HCl buffer pH 7.5, 40° C., LCMS
T2 sequence (P00813 1-363): T1 sequence (P00813 1-363)
Procedure: as §1, §2, §3

HIV-1 RT enzyme = biological target: T3, HIV-1 RT enzyme (Human immunodeficiency virus type 1 group M subtype B, UniProt P03366); assay: RT Polymerase Assay; format: biochemical
T3 construct: Full-length wild-type and 2 mutant RT proteins were expressed in Escherichia coli BL21(DE3) cells and purified; made in house; host or cells: Escherichia coli BL21(DE3)
Procedure: Full-length wild-type and 2 mutant RT proteins were expressed in Escherichia coli BL21(DE3) cells and purified. Briefly, the heterodimeric nucleic acid substrate used in the HIV-1 RT polymerase reactions was generated by annealing biotinylated DNA primer to a 500 nucleotide RNA template. The HIV-1 RT enzyme (final concentration of […]) was combined with an inhibitor compound or DMSO (10% DMSO in the final reaction mixture) in assay buffer (62.5 mM Tris-HCl, pH 7.8, 1.25 mM dithiothreitol, 7.5 mM MgCl2, 100 mM KCl, 0.03% CHAPS, 0.125 mM EGTA). This mixture was pre-incubated for 30 minutes at room temperature in microtiter plates. The polymerization reaction was initiated by the addition of template/primer substrate (final concentration: 16.6 nM) and dNTPs (final concentration: 2 μM dCTP, dGTP, dATP, and 66.6 nM Ru-dUTP). After 90 min of incubation at 37° C., reactions were quenched by the addition of EDTA (25 mM). The resulting mixture was incubated for an additional 5 minutes at room temperature followed by transferring the solution (50 μL) to blocked avidin plate from Meso Scale Discovery (MSD). The mixtures were incubated at room temperature for 60 min prior to the quantification of the reaction product via an ECL 6000 imager instrument.

[4] = Human immunodeficiency virus 1, 24 h, read-out: IC50 24 h (nM)
[5] = Human immunodeficiency virus 1, read-out: IC50 72 h (nM)

Row | Compound | IC50 [1, 4] | IC50 [1, 5] | Fold shift IC50 72 h/24 h [1] | conversion to the corresponding inosine product by adenosine deaminase (human ADA type 1) | IC50 [2] | half-life at 4.8 mM [3] | IC50 (HIV-1 RT enzyme)
1 | C#C[C@]1(CO)O[C@@H](n2ccc3c(N)nc(N)nc32)C[C@@H]1O [Example 8, (2R,3S,5R)-5-(2,4-diamino-7H-pyrrolo[2,3-d]pyrimidin-7-yl)-2-ethynyl-2-(hydroxymethyl)tetrahydrofuran-3-ol] | 840 nM | 29000 nM | 34.5 | not detected | 0.194 µM |  | 
2 | C#C[C@]1(CO)O[C@@H](c2cnn3c(N)ncnc23)C[C@@H]1O [Example 23, (2R,3S,5R)-5-(4-aminopyrazolo[1,5-a][1,3,5]triazin-8-yl)-2-ethynyl-2-(hydroxymethyl)tetrahydrofuran-3-ol] | 64 nM | 700 nM | 10.9 |  | 0.064 µM | 0.167 h | 
3 | C#C[C@]1(CO)O[C@@H](c2ccc3c(N)ncnn23)C[C@@H]1O [Example 11, (2R,3S,5R)-5-(4-aminopyrrolo[2,1-f][1,2,4]triazin-7-yl)-2-ethynyl-2-(hydroxymethyl)tetrahydrofuran-3-ol] | 12.4 nM | 1950 nM | 157 |  | 0.0172 µM | 3 h | 
4 | C#C[C@]1(COP(=O)(O)OP(=O)(O)OP(=O)(O)O)O[C@@H](n2cc(F)c3c(N)ncnc32)C[C@@H]1O [Example 14, ammonium ((2R,3S,5R)-5-(4-amino-5-fluoro-7H-pyrrolo[2,3-d]pyrimidin-7-yl)-2-ethynyl-3-hydroxytetrahydrofuran-2-yl)methyl triphosphate] |  |  |  |  |  |  | 0.21 µM
5 | C#C[C@]1(CO)O[C@@H](c2cnc3c(N)ncnn23)C[C@@H]1O [Example 22, (2R,3S,5R)-5-(4-aminoimidazo[2,1-f][1,2,4]triazin-7-yl)-2-ethynyl-2-(hydroxymethyl)tetrahydrofuran-3-ol] | 38 nM | 350 nM | 9.2 |  | 0.038 µM | 0.167 h | 
6 | Nc1ncnc2c1ncn2[C@H]1C[C@H](O)[C@@H](CO)O1 [Deoxy- adenosine, deoxyadenosine, reference compound] |  |  |  |  |  | < 0.167 h | 
7 | C#C[C@]1(COP(=O)(O)OP(=O)(O)OP(=O)(O)O)O[C@@H](n2cc(C)c3c(N)ncnc32)C[C@@H]1O [Example 15, ammonium (2R,3S,5R)-5-(4-amino-5-methyl-7H-pyrrolo[2,3-d]pyrimidin-7-yl)-2-ethynyl-3-hydroxytetrahydrofuran-2-yl)methyl triphosphate] |  |  |  |  |  |  | 6.24 µM
8 | C#C[C@]1(CO)O[C@@H](n2ccc3c(N)ncnc32)C[C@@H]1O [Example 1, (2R,3S,5R)-5-(4-amino-7H-pyrrolo[2,3-d]pyrimidin-7-yl)-2-ethynyl-2-(hydroxymethyl)tetrahydrofuran-3-ol] | 0.8 nM | 36 nM | 45 |  | 0.0013 µM | 288 h | 
9 | C#C[C@]1(CO)O[C@@H](n2cnc3c(N)ncnc32)C[C@@H]1O [EDA, (2R,3S,5R)-5-(6-amino-9H-purin-9-yl)-2-ethynyl-2-(hydroxymethyl)tetrahydrofuran-3-ol, reference compound] |  |  |  |  |  | < 1 h | 
10 | N#C[C@]1(COP(=O)(O)OP(=O)(O)OP(=O)(O)O)O[C@@H](n2ccc3c(N)ncnc32)C[C@@H]1O [Example 18, bis-triethylammonium ((2R,3S,5R)-5-(4-amino-7H-pyrrolo[2,3-d]pyrimidin-7-yl)-2-cyano-3-hydroxytetrahydrofuran-2-yl)methyl triphosphate] |  |  |  |  |  |  | 4.15 µM
11 | C#C[C@]1(CO)O[C@@H](n2cc(F)c3c(N)ncnc32)C[C@@H]1O [Example 2, (2R,3S,5R)-5-(4-amino-5-fluoro-7H-pyrrolo[2,3-d]pyrimidin-7-yl)-2-ethynyl-2-(hydroxymethyl)tetrahydrofuran-3-ol] | 6.6 nM | 193 nM | 29 |  | 0.0016 µM | 16 h | 
12 | C#C[C@]1(COP(=O)(O)OP(=O)(O)OP(=O)(O)O)O[C@@H](c2ccc3c(N)ncnn23)C[C@@H]1O [Example 19, ammonium ((2R,3S,5R)-5-(4-aminopyrrolo[2,1-f][1,2,4]triazin-7-yl)-2-ethynyl-3-hydroxytetrahydrofuran-2-yl)methyl triphosphate] |  |  |  |  |  |  | 3.54 µM
